Measurements reported in US8501770B2 (ArQule, Inc., priority 2009, dated 2013).

Biological target: Full-length inactive AKT1 (Homo sapiens, UniProt P31749)
Test: Inactive Akt Alpha Screen Assay
Assay type: biochemical
Conditions: values not marked with "*"; read-out: Akt1 IC50, (AlphaScreen)
In short: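 AlphaScreen read-out (excitation 640 nm, emission 570 nm) after 90 min incubation at room temperature in the dark. Signal comes from crosstide phosphorylation by AKT1, which was activated by added PDK1, MAPKAPK2, ATP and lipid vesicles, captured via phospho-AKT substrate antibody and streptavidin beads.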

Sequence of Full-length inactive AKT1 (P31749 whole entry): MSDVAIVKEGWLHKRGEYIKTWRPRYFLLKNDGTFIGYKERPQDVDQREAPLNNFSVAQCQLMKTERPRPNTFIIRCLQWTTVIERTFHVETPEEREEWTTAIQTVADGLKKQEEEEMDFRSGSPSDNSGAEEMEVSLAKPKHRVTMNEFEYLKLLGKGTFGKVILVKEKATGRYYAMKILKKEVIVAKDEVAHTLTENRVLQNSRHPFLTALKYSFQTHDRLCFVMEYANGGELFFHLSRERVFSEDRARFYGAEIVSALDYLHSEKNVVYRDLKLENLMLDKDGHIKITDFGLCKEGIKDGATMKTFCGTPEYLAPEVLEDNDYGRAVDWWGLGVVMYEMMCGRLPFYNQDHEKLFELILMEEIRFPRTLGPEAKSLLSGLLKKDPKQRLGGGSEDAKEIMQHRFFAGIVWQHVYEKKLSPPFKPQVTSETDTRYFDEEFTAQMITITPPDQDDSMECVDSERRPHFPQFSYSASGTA

IC50 [µM] | SMILES
0.13 | COc1ccc(S(=O)(=O)NCc2ccc(-n3c(-c4cccnc4N)nc4cc(-c5cccnc5)cnc43)cc2)cc1 [Example 206, N-(4-(2-(2-aminopyridin-3-yl)-6-(pyridin-3-yl)-3H-imidazo[4,5-b]pyridin-3-yl)benzyl)-4-methoxybenzenesulfonamide]
0.18 | CC(C)(C)OC(=O)NCc1ccc(-n2c(-c3cccnc3N)nc3ccc(-c4ccncc4)nc32)cc1 [Example 208, tert-butyl 4-(2-(2-aminopyridin-3-yl)-5-(pyridin-4-yl)-3H-imidazo[4,5-b]pyridin-3-yl)benzylcarbamate]
0.061 | Cc1cnc2c(c1)nc(-c1cccnc1N)n2-c1ccc(CNC(=O)c2cccc(N(C)C)c2)cc1 [Example 211, N-(4-(2-(2-aminopyridin-3-yl)-6-methyl-3H-imidazo[4,5-b]pyridin-3-yl)benzyl)-3-(dimethylamino)benzamide]
0.023 | Cc1cnc2c(c1)nc(-c1cccnc1N)n2-c1ccc(CNC(=O)c2ccccc2-n2cccc2)cc1 [Example 214, N-(4-(2-(2-aminopyridin-3-yl)-6-methyl-3H-imidazo[4,5-b]pyridin-3-yl)benzyl)-2-(1H-pyrrol-1-yl)benzamide]
0.73 | Cc1cnc2c(c1)nc(-c1cccnc1N)n2-c1ccc(CNC(=O)C2Cc3ccccc3C2)cc1 [Example 215, N-(4-(2-(2-aminopyridin-3-yl)-6-methyl-3H-imidazo[4,5-b]pyridin-3-yl)benzyl)-2,3-dihydro-1H-indene-2-carboxamide]
0.05 | Cc1cnc2c(c1)nc(-c1cccnc1N)n2-c1ccc(CNC(=O)c2cccc3ccccc23)cc1 [Example 224, N-(4-(2-(2-aminopyridin-3-yl)-6-methyl-3H-imidazo[4,5-b]pyridin-3-yl)benzyl)-1-naphthamide]
0.018 | Nc1ncccc1-c1nc2ccc(-c3ccc(CO)cc3)nc2n1-c1ccc(CNC(=O)c2ccccc2)cc1 [Example 226, N-(4-(2-(2-aminopyridin-3-yl)-5-(4-(hydroxymethyl)phenyl)-3H-imidazo[4,5-b]pyridin-3-yl)benzyl)benzamide]
0.47 | Cc1cnc2c(c1)nc(-c1cccnc1N)n2-c1ccc(CNC(=O)OC(C)(C)C)cc1 [Example 227, tert-butyl 4-(2-(2-aminopyridin-3-yl)-6-methyl-3H-imidazo[4,5-b]pyridin-3-yl)benzylcarbamate]
0.24 | Cc1cnc2c(c1)nc(-c1cccnc1N)n2-c1ccc(CNC(=O)c2ccc(F)cc2)cc1 [Example 228, N-(4-(2-(2-aminopyridin-3-yl)-6-methyl-3H-imidazo[4,5-b]pyridin-3-yl)benzyl)-4-fluorobenzamide]
0.025 | CC(=O)Nc1cccc(C(=O)NCc2ccc(-n3c(-c4cccnc4N)nc4cc(C)cnc43)cc2)c1 [Example 229, 3-acetamido-N-(4-(2-(2-aminopyridin-3-yl)-6-methyl-3H-imidazo[4,5-b]pyridin-3-yl)benzyl)benzamide]
0.053 | Nc1ncccc1-c1nc2cc(F)cnc2n1-c1ccc(CC(=O)Nc2ccccc2)cc1 [Example 234, 2-(4-(2-(2-aminopyridin-3-yl)-6-fluoro-3H-imidazo[4,5-b]pyridin-3-yl)phenyl)-N-phenylacetamide]

The remaining lines, values behind:

SMILES | IC50 [µM]
Nc1ncccc1-c1nc2ccc(Cl)nc2n1-c1ccc(CNC(=O)c2cccc(F)c2)cc1 [Example 203, N-(4-(2-(2-aminopyridin-3-yl)-5-chloro-3H-imidazo[4,5-b]pyridin-3-yl)benzyl)-3-fluorobenzamide] | 0.081
CC(=O)Nc1cccc(-c2ccc3nc(-c4cccnc4N)n(-c4ccc(CNC(=O)c5cccc(F)c5)cc4)c3n2)c1 [Example 204, N-(4-(5-(3-acetamidophenyl)-2-(2-aminopyridin-3-yl)-3H-imidazo[4,5-b]pyridin-3-yl)benzyl)-3-fluorobenzamide] | 0.0073
Nc1ncccc1-c1nc2cc(-c3cccnc3)cnc2n1-c1ccc(CNS(=O)(=O)C2CC2)cc1 [Example 205, N-(4-(2-(2-aminopyridin-3-yl)-6-(pyridin-3-yl)-3H-imidazo[4,5-b]pyridin-3-yl)benzyl)cyclopropanesulfonamide] | 0.059
Nc1ncccc1-c1nc2cc(-c3cccnc3)cnc2n1-c1ccc(CNS(=O)(=O)c2ccc(Cl)cc2)cc1 [Example 207, N-(4-(2-(2-aminopyridin-3-yl)-6-(pyridin-3-yl)-3H-imidazo[4,5-b]pyridin-3-yl)benzyl)-4-chlorobenzenesulfonamide] | 0.06
Cc1ccnc2c1nc(-c1cccnc1N)n2-c1ccc(CNC(=O)c2ccccc2)cc1 [Example 210, N-(4-(2-(2-aminopyridin-3-yl)-7-methyl-3H-imidazo[4,5-b]pyridin-3-yl)benzyl)benzamide] | 0.21
Cc1cnc2c(c1)nc(-c1cccnc1N)n2-c1ccc(CNC(=O)c2cn(C)c3ccccc23)cc1 [Example 212, N-(4-(2-(2-aminopyridin-3-yl)-6-methyl-3H-imidazo[4,5-b]pyridin-3-yl)benzyl)-1-methyl-1H-indole-3-carboxamide] | 0.2
Cc1cnc2c(c1)nc(-c1cccnc1N)n2-c1ccc(CNC(=O)CCC2CCCCC2)cc1 [Example 213, N-(4-(2-(2-aminopyridin-3-yl)-6-methyl-3H-imidazo[4,5-b]pyridin-3-yl)benzyl)-3-cyclohexylpropanamide] | 0.48
Cc1cccc(C(=O)NCc2ccc(-n3c(-c4cccnc4N)nc4cc(C)cnc43)cc2)c1 [Example 216, N-(4-(2-(2-aminopyridin-3-yl)-6-methyl-3H-imidazo[4,5-b]pyridin-3-yl)benzyl)-3-methylbenzamide] | 0.077
Cc1cnc2c(c1)nc(-c1cccnc1N)n2-c1ccc(CNC(=O)c2ccc(Cl)cc2F)cc1 [Example 217, N-(4-(2-(2-aminopyridin-3-yl)-6-methyl-3H-imidazo[4,5-b]pyridin-3-yl)benzyl)-4-chloro-2-fluorobenzamide] | 0.084
Cc1cnc2c(c1)nc(-c1cccnc1N)n2-c1ccc(CNC(=O)c2ccccc2Cl)cc1 [Example 218, N-(4-(2-(2-aminopyridin-3-yl)-6-methyl-3H-imidazo[4,5-b]pyridin-3-yl)benzyl)-2-chlorobenzamide] | 0.063
Cc1cnc2c(c1)nc(-c1cccnc1N)n2-c1ccc(CNC(=O)Cc2ccccc2)cc1 [Example 219, N-(4-(2-(2-aminopyridin-3-yl)-6-methyl-3H-imidazo[4,5-b]pyridin-3-yl)benzyl)-2-phenylacetamide] | 0.23
CC(=O)Nc1ccc(C(=O)NCc2ccc(-n3c(-c4cccnc4N)nc4cc(C)cnc43)cc2)cc1 [Example 220, 4-acetamido-N-(4-(2-(2-aminopyridin-3-yl)-6-methyl-3H-imidazo[4,5-b]pyridin-3-yl)benzyl)benzamide] | 0.054
COc1ccccc1C(=O)NCc1ccc(-n2c(-c3cccnc3N)nc3cc(C)cnc32)cc1 [Example 221, N-(4-(2-(2-aminopyridin-3-yl)-6-methyl-3H-imidazo[4,5-b]pyridin-3-yl)benzyl)-2-methoxybenzamide] | 0.26
Cc1cnc2c(c1)nc(-c1cccnc1N)n2-c1ccc(CNC(=O)c2ccc(N(C)C)cc2)cc1 [Example 222, N-(4-(2-(2-aminopyridin-3-yl)-6-methyl-3H-imidazo[4,5-b]pyridin-3-yl)benzyl)-4-(dimethylamino)benzamide] | 0.043
Cc1cnc2c(c1)nc(-c1cccnc1N)n2-c1ccc(CNC(=O)c2ccccc2C)cc1 [Example 223, N-(4-(2-(2-aminopyridin-3-yl)-6-methyl-3H-imidazo[4,5-b]pyridin-3-yl)benzyl)-2-methylbenzamide] | 0.03
Cc1cnc2c(c1)nc(-c1cccnc1N)n2-c1ccc(CNC(=O)c2ccccc2Cc2ccccc2)cc1 [Example 225, N-(4-(2-(2-aminopyridin-3-yl)-6-methyl-3H-imidazo[4,5-b]pyridin-3-yl)benzyl)-2-benzylbenzamide] | 0.011
Cc1cnc2c(c1)nc(-c1cccnc1N)n2-c1ccc(CNC(=O)c2ccc(C(C)C)cc2)cc1 [Example 230, N-(4-(2-(2-aminopyridin-3-yl)-6-methyl-3H-imidazo[4,5-b]pyridin-3-yl)benzyl)-4-isopropylbenzamide] | 0.19
Cc1cnc2c(c1)nc(-c1cccnc1N)n2-c1ccc(CNC(=O)c2ccc3nc(C)ccc3c2)cc1 [Example 231, N-(4-(2-(2-aminopyridin-3-yl)-6-methyl-3H-imidazo[4,5-b]pyridin-3-yl)benzyl)-2-methylquinoline-6-carboxamide] | 0.02
Cc1cnc2c(c1)nc(-c1cccnc1N)n2-c1ccc(CNC(=O)c2cccc(F)c2)cc1 [Example 232, N-(4-(2-(2-aminopyridin-3-yl)-6-methyl-3H-imidazo[4,5-b]pyridin-3-yl)benzyl)-3-fluorobenzamide] | 0.041
CC(C)c1ccc(C(=O)NCc2ccc(-n3c(-c4cccnc4N)nc4cc(-c5cccnc5)cnc43)cc2)cc1 [Example 233, N-(4-(2-(2-aminopyridin-3-yl)-6-(pyridin-3-yl)-3H-imidazo[4,5-b]pyridin-3-yl)benzyl)-4-isopropylbenzamide] | 0.14
Nc1ncccc1-c1nc2ccc(-c3ccncc3)nc2n1-c1ccc(CNC(=O)c2ccccc2)cc1 [Example 235, N-(4-(2-(2-aminopyridin-3-yl)-5-(pyridin-4-yl)-3H-imidazo[4,5-b]pyridin-3-yl)benzyl)benzamide] | 0.13
CC(=O)Nc1ccc(-c2ccc3nc(-c4cccnc4N)n(-c4ccc(CNC(=O)c5ccccc5)cc4)c3n2)cc1 [Example 236, N-(4-(5-(4-acetamidophenyl)-2-(2-aminopyridin-3-yl)-3H-imidazo[4,5-b]pyridin-3-yl)benzyl)benzamide] | 0.033
Nc1ncccc1-c1nc2cc(-c3cc[nH]c3)cnc2n1-c1ccc(CNC(=O)c2ccccc2)cc1 [Example 237, N-(4-(2-(2-aminopyridin-3-yl)-6-(1H-pyrrol-3-yl)-3H-imidazo[4,5-b]pyridin-3-yl)benzyl)benzamide] | 0.032
